System: vaginal proteome (human proteins in vaginal fluid)
Experiment: MS/MS proteomic analysis of vaginal fluid pools, BV-affected women before (BV) and after rifaximin/placebo treatment: human proteins
Assay type: in vivo
Method: Proteomic analysis was performed on 9 pools of vaginal isolates, grouped according to the status of the BV infection: • H pool (from 41 healthy women); BV pool (from 39 BV-affected women); • A-R pool (from 2 women who were in remission after rifaximin treatment-group A); • A-N pool (from 8 women who were not in remission after rifaximin treatment-group A); • B-R pool (from 5 women who were in remission after rifaximin treatment-group B); • B-N pool (from 5 women who were not in remission after rifaximin treatment-group B); • C-R pool (from 4 women who were in remission after rifaximin treatment-group C); • C-N (from 5 women who were not in remission after rifaximin treatment-group C); • D-N (from 10 women who were not in remission after placebo treatment-group D). Scheme of the vaginal fluids collected for testing the diagnostic method is represented in FIG. 1.
In these figures are reported the peptides in the fractionated pools of healthy women, women affected by BV and peptides of women treated with rifaximin. The treatment with rifaximin was at dosage of 100 mg/day for 5 days; (remission, A-R; no remission, A-N), 25 mg/5 days (remission, B-R; no remission, B-N), 100 mg/2 days (remission, C-R; no remission, C-N), and placebo for 5 days (D-N). Two types of comparisons were carried out: (i) between fractionated pools of proteins from vaginal fluid of healthy women (HF) versus fractionated pool of proteins from vaginal fluid of women affected by bacterial vaginosis (BVF); (ii) between whole pools of proteins from vaginal fluid of women affected by BV treated by administering different doses of rifaximin or placebo before (BV) and after (A-R, A-N, B-R, B-N, C-R, C-N, D-N) treatment. Fractioned pools of proteins are obtained, e.g., by separating the proteins by separation on membrane filtration with different membrane porosity, prior to MS/MS analysis.
Nine volumes of acetone: HCl (10:1) were added to the supernatant of the vaginal rinsing and proteins were precipitated by centrifuging at 12000 g for 10 min. The protein pellet was dissolved in 1 mL of 70% ethanol and the sample was spun at 12000 g for 10 min. One mL of acetone was added and the proteins were further precipitated by centrifugation at 12000 g for 5 min. After removing supernatant, pellet was dried by SpeedVac concentrator (Thermo Savant ISS110, Thermo Fisher Scientific, Waltham, Mass.) and then stored at −20° C.
Protein extract was quantified using the 2-D Quant Kit (GE Healthcare, Uppsala, Sweden) according to the manufacturer's instructions.
Patients who were diagnosed for BV at the study visit V1 were included in a multicentre, double-blind, randomised, placebo-controlled study (EudraCT: 2009-011826-32), that was performed to compare the efficacy of different doses of rifaximin vaginal tablets versus placebo for the treatment of BV. The patients underwent a randomisation visit and were distributed into 4 treatment groups: group A received 100 mg rifaximin vaginal tablet once daily for 5 days (n=10), group B received 25 mg rifaximin vaginal tablet once daily for 5 days (n=10), group C received 100 mg rifaximin vaginal tablet once daily for the first 2 days and placebo vaginal tablet for the remaining 3 days (n=9), group D received placebo vaginal tablet once daily for 5 days (n=10). Study medication was administered intra-vaginally at bedtime. After 7 to 10 days from the end of the therapy a follow-up visit (V3) was performed. Remission was evaluated at V3 according to Amsel's criteria (<3) and Gram stain Nugent score (≦3) (Table 1).
Standardized vaginal rinsings with 2 mL of saline were collected for analysis at V1 and V3 by flushing and re-aspirating the fluid through a 22 Gauge needle in the left, central and right upper vaginal vaults. The vaginal rinsings were subsequently stored at −80° C. until use.
MS/MS analysis was carried out for H and BV pools and for the whole BV, A-R, A-N, B-R, B-N, C-R, C-N and D-N pools containing 50 μg of protein each. […]

CO[C@H]1/C=C/O[C@@]2(C)Oc3c(C)c(O)c4c(O)c(c5c(nc6cc(C)ccn65)c4c3C2=O)NC(=O)/C(C)=C\C=C\[C@H](C)[C@H](O)[C@@H](C)[C@@H](O)[C@@H](C)[C@H](OC(C)=O)[C@@H]1C [rifaximin]
Ratio: BV/R, Vitamin D-binding protein (C-R pool (100 mg × 2 days, in remission) vs BV pool before treatment, vaginal fluid): 0.0 | Ratio X/H Sciellin (O95171) (pool A-N after treatment): 0.0 | Ratio X/H Semenogelin-2 (Q02383) (pool A-N after treatment): 525.8 | Ratio X/H Serine protease 27 (Q9BQR3) (pool A-N after treatment): 0.0 | Ratio X/H Serine/threonine-protein kinase ULK1 (O75385) (pool A-N after treatment): −5.1 | Ratio X/H Serotransferrin (P02787) (pool A-N after treatment): 1.6 | Ratio X/H Serpin B3 (P29508) (pool A-N after treatment): 0.0 | Ratio X/H Serpin B4 (P48594) (pool A-N after treatment): 0.0 | Ratio X/H Serpin B5 (P36952) (pool A-N after treatment): −3.3 | Ratio X/H Serpin B6 (P35237) (pool A-N after treatment): −2.1 | Ratio X/H Serpin B9 (P50453) (pool A-N after treatment): −2.6 | Ratio X/H Serpin B12 (Q96P63) (pool A-N after treatment): −1.5 | Ratio X/H Serpin B13 (Q9UIV8) (pool A-N after treatment): 0.0 | Ratio X/H Serum albumin (P02768) (pool A-N after treatment): −1.5 | Ratio X/H Serum paraoxonase/arylesterase 1 (P27169) (pool A-N after treatment): 1.5 | Ratio X/H Small proline-rich protein 3 (Q9UBC9) (pool A-N after treatment): 3.4 | Ratio X/H Stanniocalcin-1 (P52823) (pool A-N after treatment): 1.9 | Ratio X/H Sulfhydryl oxidase 1 (O00391) (pool A-N after treatment): −1.6 | Ratio X/H Superoxide dismutase [Cu—Zn] (P00441) (pool A-N after treatment): 0.0 | Ratio X/H Suprabasin (Q6UWP8) (pool A-N after treatment): 13.5 | Ratio X/H Syntenin-1 (O00560) (pool A-N after treatment): 4.4 | Ratio X/H Talin-1 (Q9Y490) (pool A-N after treatment): 0.0 | Ratio X/H Tctex1 domain-containing protein 2 (Q8WW35) (pool A-N after treatment): −1.6 | Ratio X/H Teneurin-3 (Q9P273) (pool A-N after treatment): 9.7 | Ratio X/H Thioredoxin (P10599) (pool A-N after treatment): 0.0 | Ratio X/H Transaldolase (P37837) (pool A-N after treatment): −1.8 | Ratio X/H Transmembrane protease serine 11D (O60235) (pool A-N after treatment): −1.8 | Ratio X/H Transthyretin (P02766) (pool A-N after treatment): 0.0 | Ratio X/H Tumor protein D54 (O43399) (pool A-N after treatment): 0.0 | Ratio X/H UTP--glucose-1-phosphate uridylyltransferase (Q16851) (pool A-N after treatment): 0.0 | Ratio X/H UV excision repair protein RAD23 homolog B (P54727) (pool A-N after treatment): −2.9 | Ratio X/H Uronyl 2-sulfotransferase (Q9Y2C2) (pool A-N after treatment): −786.0 | Ratio X/H Versican core protein (P13611) (pool A-N after treatment): 0.0 | Ratio X/H Vinculin (P18206) (pool A-N after treatment): 0.0 | Ratio X/H Vitamin D-binding protein (P02774) (pool A-N after treatment): 0.0 | Ratio X/H Werner syndrome ATP-dependent helicase (Q14191) (pool A-N after treatment): 302.6 | Ratio X/H Zinc finger protein 185 (O15231) (pool A-N after treatment): 2.2 | Ratio X/H Zinc finger protein 335 (Q9H4Z2) (pool A-N after treatment): 0.0 | Ratio X/H Zinc-alpha-2-glycoprotein (P25311) (pool A-N after treatment): 0.0 | Ratio X/H Zyxin (Q15942) (pool A-N after treatment): −1.7 | Ratio X/H Sciellin (O95171) (pool A-R after treatment): 0.0 | Ratio X/H Semenogelin-2 (Q02383) (pool A-R after treatment): 1.9 | Ratio X/H Serine protease 27 (Q9BQR3) (pool A-R after treatment): −1.7 | Ratio X/H Serine/threonine-protein kinase ULK1 (O75385) (pool A-R after treatment): −2.2 | Ratio X/H Serotransferrin (P02787) (pool A-R after treatment): −1.5 | Ratio X/H Serpin B3 (P29508) (pool A-R after treatment): 3.2 | Ratio X/H Serpin B4 (P48594) (pool A-R after treatment): 0.0 | Ratio X/H Serpin B5 (P36952) (pool A-R after treatment): −7.9 | Ratio X/H Serpin B6 (P35237) (pool A-R after treatment): 0.0 | Ratio X/H Serpin B9 (P50453) (pool A-R after treatment): −4.1 | Ratio X/H Serpin B12 (Q96P63) (pool A-R after treatment): −2.7 | Ratio X/H Serpin B13 (Q9UIV8) (pool A-R after treatment): 0.0 | Ratio X/H Serum albumin (P02768) (pool A-R after treatment): −2.3 | Ratio X/H Serum paraoxonase/arylesterase 1 (P27169) (pool A-R after treatment): 0.0 | Ratio X/H Small proline-rich protein 3 (Q9UBC9) (pool A-R after treatment): 6.6 | Ratio X/H Stanniocalcin-1 (P52823) (pool A-R after treatment): 3.4 | Ratio X/H Sulfhydryl oxidase 1 (O00391) (pool A-R after treatment): 0.0 | Ratio X/H Superoxide dismutase [Cu—Zn] (P00441) (pool A-R after treatment): −1.8 | Ratio X/H Suprabasin (Q6UWP8) (pool A-R after treatment): 17.9 | Ratio X/H Syntenin-1 (O00560) (pool A-R after treatment): 1.9 | Ratio X/H Talin-1 (Q9Y490) (pool A-R after treatment): −1.6 | Ratio X/H Tctex1 domain-containing protein 2 (Q8WW35) (pool A-R after treatment): 1.8 | Ratio X/H Teneurin-3 (Q9P273) (pool A-R after treatment): 33.3 | Ratio X/H Thioredoxin (P10599) (pool A-R after treatment): 2.5 | Ratio X/H Transaldolase (P37837) (pool A-R after treatment): −1.9 | Ratio X/H Transmembrane protease serine 11D (O60235) (pool A-R after treatment): 0.0 | Ratio X/H Transthyretin (P02766) (pool A-R after treatment): 0.0 | Ratio X/H Tumor protein D54 (O43399) (pool A-R after treatment): 2.2 | Ratio X/H UTP--glucose-1-phosphate uridylyltransferase (Q16851) (pool A-R after treatment): 0.0 | Ratio X/H UV excision repair protein RAD23 homolog B (P54727) (pool A-R after treatment): −2.8 | Ratio X/H Uronyl 2-sulfotransferase (Q9Y2C2) (pool A-R after treatment): 2.0 | Ratio X/H Versican core protein (P13611) (pool A-R after treatment): 0.0 | Ratio X/H Vinculin (P18206) (pool A-R after treatment): 0.0 | Ratio X/H Vitamin D-binding protein (P02774) (pool A-R after treatment): −1.7 | Ratio X/H Werner syndrome ATP-dependent helicase (Q14191) (pool A-R after treatment): 331.1 | Ratio X/H Zinc finger protein 185 (O15231) (pool A-R after treatment): 5.2 | Ratio X/H Zinc finger protein 335 (Q9H4Z2) (pool A-R after treatment): 0.0 | Ratio X/H Zinc-alpha-2-glycoprotein (P25311) (pool A-R after treatment): 0.0
